{"source": "patent US20120308570A1", "about": "“METHODS FOR TREATING DISEASES” (priority 2009, published 2012)", "key": {"SSB-2ΔSB": {"target": "T1, SSB-2ΔSB (Mus musculus, UniProt O88838)", "T1 construct": "GST (N, cleaved yes); made in house; host or cells: E. coli BL21 (DE3)", "T1 sequence (O88838 12-224)": "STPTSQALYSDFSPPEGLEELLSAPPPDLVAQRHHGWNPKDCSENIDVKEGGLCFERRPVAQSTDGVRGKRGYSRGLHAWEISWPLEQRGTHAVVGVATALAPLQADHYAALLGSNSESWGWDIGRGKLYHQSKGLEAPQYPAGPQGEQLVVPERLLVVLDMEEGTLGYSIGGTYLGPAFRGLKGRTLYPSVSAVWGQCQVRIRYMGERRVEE", "assay": "1H-15N HSQC NMR titration of iNOS peptide into 15N-labelled SSB-2ΔSB", "type": "binding", "conditions": "0.1 mM SSB-2ΔSB, ratios 1:0.5, 1:1, 1:1.5, pH 7.0, 22° C.", "procedure": "NMR spectra were recorded on an Avance 500 spectrometer equipped with a cryoprobe. The ^1H chemical shifts were referenced indirectly to DSS at 0 ppm via the H2O signal, and the ^13C and ^15N chemical shifts were referenced indirectly using absolute frequency ratios (Wishart et al., 1995). Spectra were processed using Topspin version 1.3 (Bruker Biospin) and analysed using XEASY, version 1.3. ^15N-labelled SSB-2ΔSB Sample for NMR analysis were prepared in H2O containing 5% ^2H2O, 10 mM sodium phosphate, 50 mM sodium chloride, 2 mM EDTA, 2 mM DTT and 0.02% (w/v) sodium azide at pH 7.0. Two-dimensional ^1H-^15N HSQC spectrum of a 0.1 mM ^15N-labelled SSB-2ΔSB sample was recorded and 22° C. using a data matrix size of 2048×256 and with 128 scans per t1 increment. The spectral widths were 13.5 ppm for ^1H and 40.0 ppm for ^15N; carrier frequencies were 4.7 ppm for ^1H and 118 ppm for ^15N. Unlabelled iNOS N-terminal peptide (wild-type) were then titrated into the ^15N-labelled SSB-2ΔSB sample, and ^1H-^15N HSQC spectra recorded at ^15N-labelled SSB-2ΔSB:iNOS peptide ratios of 1:0.5, 1:1, and 1:1.5.\nNuclear magnetic resonance (NMR) spectroscopy was then used to further analyze the SSB-2:iNOS peptide interaction. […]"}, "[1]": {"target": "T2, SSB-2 SPRY domain (SSB-2ΔSB, residues 12-224) (Mus musculus, UniProt O88838)", "T2 construct": "GST (N, cleaved yes); made in house; host or cells: E. coli BL21 (DE3)", "T2 sequence (O88838 12-224)": "T1 sequence (O88838 12-224)", "assay": "ITC of SSB-2 SPRY domain with iNOS N-terminal peptides", "type": "binding", "conditions": "25° C., 100 mM TrisHCl, 150 mM NaCl, pH 8.0", "excerpt": "The construct used for expression of recombinant murine SSB-2 protein included almost all the native sequence of mouse SSB-2 except for the SOCS box and the first eleven residues (residues 12-224, SWISS-PROT accession number 088838). This sequence, together with six residues at the N-terminus (GSSARQ (SEQ ID NO:38), numbered 6-11) and seven at the C-terminus (TRRIHRD (SEQ ID NO:39), numbered 225-231), both originating from the vector, gave a construct of 226 residues in total. This was expressed as a GST fusion protein in BL21 (DE3) E. coli. For ITC and co-precipitation experiments, bacteria were grown in L-broth. For NMR analysis, bacteria were grown in M9 minimal media supplemented with ^15N NH4Cl (99%, 1 g L−1). The GST fusion protein was purified from clarified cell lysates using Glutathione Sepharose 4B (Amersham Biosciences) then cleaved in situ using thrombin (Roche). […]\nTo determine whether the SSB-2-SPRY domain could interact with the sequence identified by the database searches, a series of peptides including the wild-type and various mutant sequences corresponding to amino acids 19-31 of murine iNOS, were synthesized and binding affinities for the SSB-2-SPRY domain (residues 12-224; SSB-2ΔSB) measured using isothermal titration calorimetry (ITC) (Table 2, FIG. 3)."}}, "data": [{"substance": "Ac-KEEKDINNNVKKT-NH2 [I, Ac-KEEKDINNNVKKT-NH2]", "values": [{"measurement": "binding to SSB-2ΔSB by NMR", "setting": "SSB-2ΔSB", "value": "bound to SSB-2ΔSB"}, {"measurement": "Kd", "setting": "[1]", "value": 13, "unit": "nM"}]}]}
